Read-outs that look alike come from different tables or passages of the source.
Columns and labels:
rats = test: Acute toxicity tests; type: in vivo; details: p.o., Litchfield-Wildoxon method
Procedure: (§1) The acute toxicity values of the compounds were determined on rats, after oral administration. The LD50 values were calculated according to the Litchfield-Wildoxon method.

[1] = Determination of ulcer index
[2] = Analgesic effect by the hot-plate test; type: in vivo; details: 50 mg./kg. p.o.
[3] = Inhibition of kaolin-induced oedema; type: in vivo; details: in vivo; LD50/ED50; read-out: Therapeutical index LD50/ED50, kaolin-oedema
Procedure: (§2) Inhibition of Kaolin- and carrageenin-induced oedema
(§3) The tests were carried out on groups each consisting of at least 10 animals. The percentage inhibition of oedema, in relation to the untreated controls, was determined for each of the animals, and the average values were calculated.

kaolin-induced oedema = test: Inhibition of kaolin-induced oedema; type: in vivo; details: 2 hours
Procedure: as §2, §3

[4] = Inhibition of carrageenin-induced oedema; type: in vivo; details: in vivo; LD50/ED50; read-out: Therapeutical index LD50/ED50, carrageenin-oedema
Procedure: as §2, §3

[5] = system: carrageenin-induced oedema; test: Inhibition of carrageenin-induced oedema; type: in vivo; details: 1.5 hours
Procedure: as §2, §3

[6] = system: serotonine-induced oedema; test: Tests performed on serotonine-induced oedema; type: in vivo
Procedure: Tests performed on serotonine-induced oedema
The tests were carried out on groups each consisting of 10 animals. The percentage inhibition of oedema, in relation to the untreated controls, was determined for each of the animals. The data listed in Table 3 are the averages of the inhibition values.

Acute toxicity tests = type: in vivo; details: rat, in vivo, po; rats, Litchfield-Wildoxon method
Procedure: as §1

[7] = Analgesic effect by the writhing test; type: in vivo; details: 100 mg./kg. p.o.
[8] = in vivo
[9] = system: experimentally provoked fever; test: Antipyretic activity (experimentally provoked fever); type: in vivo; parameters: unit not given here
From the text: Besides their antiphlogistic activities, some of the benzo(a)quinolizidine derivatives exert antipyretic effects as well. On the basis of the tests performed on experimentally provoked fever, the antipyretic activities of the compounds according to the invention surpass the effect of amidazophenum.

Cotton granuloma = Cotton granuloma test; type: in vivo; details: 50 mg./kg.

COc1ccc2c(c1)c(CC(=O)O)c(C)n2C(=O)c1ccc(Cl)cc1 [Indomethacine, reference compound]
LD50 (rats): 12 mg/kg | Erosion ([1]; female): 1/10 | Ulcer ([1]; female): 3/10 | ulcerogeneous effect ([1]; in words): marked ulcerogeneous effect | Erosion ([1]; male): 1/10 | Ulcer ([1]; male): 3/10 | Prolongation of the reaction time, % (2 hours after administration) [2]: no evaluable effect can be | selectivity ratio [3]: 2.3 | Inhibition of kaolin-induced oedema 2 hours after administration (kaolin-induced oedema; 10 mg./kg. p.o.): 27.2% | selectivity ratio [4]: 1.3 | Inhibition of carrageenin-induced oedema 1.5 hours after administration ([5]; 10 mg./kg. p.o.): 26.7% | Percentage inhibition 1 hour after administration (serotonine-induced oedema) ([6]; 25 mg./kg. p.o.): 1.4%

CCCCC1C(=O)N(c2ccccc2)N(c2ccccc2)C1=O [Phenylbutazone]
LD50 (Acute toxicity tests): 1180 mg/kg | Activity, % (reduction of the number of writhings in relation to the controls) [7]: 17.6% | Erosion [8]: 0/10 | Prolongation of the reaction time, % (2 hours after administration) [2]: no evaluable effect can be | Inhibition of kaolin-induced oedema 2 hours after administration (kaolin-induced oedema; 50 mg./kg. p.o.): 27.5% | Inhibition of carrageenin-induced oedema 1.5 hours after administration ([5]; 50 mg./kg. p.o.): 24.3% | Percentage inhibition 1 hour after administration (serotonine-induced oedema) ([6]; 100 mg./kg. p.o.): 10.2% | Variation of body temperature ([9]; 25 mg./kg. p.o., 1 hour after administration): -0.82 | Variation of body temperature ([9]; 25 mg./kg. p.o., 2 hours after administration): -0.84 | Variation of body temperature ([9]; 25 mg./kg. p.o., 3 hours after administration): -0.73 | Variation of body temperature ([9]; 50 mg./kg. p.o., 1 hour after administration): -1.05 | Variation of body temperature ([9]; 50 mg./kg. p.o., 2 hours after administration): -1.07 | Variation of body temperature ([9]; 50 mg./kg. p.o., 3 hours after administration): -0.76 | Effect, % (cotton granuloma test) (Cotton granuloma): 19.6%

Reference: patent publication US4102886A, “Process for the preparation of benzo(a)quinolizidine derivatives” (priority 1974, dated 1978)
